Species: Rattus norvegicus
Experiment: Open TG-GATES - Regimen: Daily Repeat
Assay type: toxicity, organism-based, Sprague-Dawley
Set-up: regimen Daily Repeat, gender Male, age 6 weeks
Details: in vivo, po, 0 mg/kg, route gavage, dose level Control; for APTT / Bas / Eos / Fbg / Hb / Ht / Lym / MCH / MCHC / MCV / Mono / Neu / PT / Plat / RBC / Ret / WBC: tissue Blood; for KIDNEY_L / KIDNEY_R / KIDNEY_TOTAL: tissue Kidney; for LIVER: tissue Liver; for A/G / ALP / ALT / AST / BUN / CRE / Ca / Cl / DBIL / GLC / IP / K / LDH / Na / PL / RALB / TBIL / TC / TG / TP / gamma-GTP: tissue Plasma

`CC(CN1c2ccccc2Sc2ccccc21)N(C)C` (configuration not stated) [PROMETHAZINE] gave a TERMINAL_BW (72 h, time 3 day) of 230.6 g, an APTT (72 h, time 3 day) of 22.8 s and a Bas (72 h, time 3 day) of 0%. The Eos (72 h, time 3 day) was 1%, the Fbg (72 h, time 3 day) was 309 mg/dL and the Hb (72 h, time 3 day) was 13.2 g/dL. For the same compound, the Ht (72 h, time 3 day) was 40.1%, the Lym (72 h, time 3 day) was 81.2% and the MCH (72 h, time 3 day) was 20.4 pg. For the same compound, the MCHC (72 h, time 3 day) was 33%, the MCV (72 h, time 3 day) was 61.9 fL and the Mono (72 h, time 3 day) was 2.8%. The Neu (72 h, time 3 day) was 14.5%, the PT (72 h, time 3 day) was 16.1 s and the Plat (72 h, time 3 day) was 117 x10_4/uL. The RBC (72 h, time 3 day) was 647.8 x10_4/ul, the Ret (72 h, time 3 day) was 6% and the WBC (72 h, time 3 day) was 94 x10_2/uL. For the same compound, the KIDNEY_L (72 h, time 3 day) was 1 g, the KIDNEY_R (72 h, time 3 day) was 1.1 g and the KIDNEY_TOTAL (72 h, time 3 day) was 2.1 g. The LIVER (72 h, time 3 day) was 11.1 g, the A/G (72 h, time 3 day) was 1.3 and the ALP (72 h, time 3 day) was 1577 IU/L. For the same compound, the ALT (72 h, time 3 day) was 40 IU/L, the AST (72 h, time 3 day) was 71.8 IU/L and the BUN (72 h, time 3 day) was 17 mg/dL. The CRE (72 h, time 3 day) was 0.2 mg/dL, the Ca (72 h, time 3 day) was 10.5 mg/dL and the Cl (72 h, time 3 day) was 105.2 meq/L. For the same compound, the DBIL (72 h, time 3 day) was 0 mg/dL, the GLC (72 h, time 3 day) was 195.2 mg/dL and the IP (72 h, time 3 day) was 6.8 mg/dL. It also gave a K (72 h, time 3 day) of 4.6 meq/L, an LDH (72 h, time 3 day) of 177 IU/L and a Na (72 h, time 3 day) of 141.2 meq/L. The PL (72 h, time 3 day) was 161 mg/dL, the RALB (72 h, time 3 day) was 3.1 g/dL and the TBIL (72 h, time 3 day) was 0.005 mg/dL. The TC (72 h, time 3 day) was 86.8 mg/dL, the TG (72 h, time 3 day) was 109.8 mg/dL and the TP (72 h, time 3 day) was 5.5 g/dL. The gamma-GTP (72 h, time 3 day) was 1.8 IU/L, the TERMINAL_BW ([…], time 7 day) was 267.8 g and the TERMINAL_BW ([…], time 14 day) was 326 g. The TERMINAL_BW ([…], time 28 day) was 402.8 g, the APTT ([…], time 7 day) was 22.2 s and the Bas ([…], time 7 day) was 0%. It also gave an Eos ([…], time 7 day) of 0.8%, a Fbg ([…], time 7 day) of 293.8 mg/dL and a Hb ([…], time 7 day) of 12.9 g/dL. It also gave a Ht ([…], time 7 day) of 39.1%, a Lym ([…], time 7 day) of 84.2% and an MCH ([…], time 7 day) of 20.4 pg. The MCHC ([…], time 7 day) was 33%, the MCV ([…], time 7 day) was 61.7 fL and the Mono ([…], time 7 day) was 2.2%. The Neu ([…], time 7 day) was 12.2%, the PT ([…], time 7 day) was 16.3 s and the Plat ([…], time 7 day) was 105 x10_4/uL. It also gave an RBC ([…], time 7 day) of 633.4 x10_4/ul, a Ret ([…], time 7 day) of 6.3% and a WBC ([…], time 7 day) of 131.7 x10_2/uL. For the same compound, the APTT ([…], time 14 day) was 23.3 s, the Bas ([…], time 14 day) was 0% and the Eos ([…], time 14 day) was 1%. For the same compound, the Fbg ([…], time 14 day) was 317.8 mg/dL, the Hb ([…], time 14 day) was 14.1 g/dL and the Ht ([…], time 14 day) was 41.4%. It also gave a Lym ([…], time 14 day) of 80.2%, an MCH ([…], time 14 day) of 20.7 pg and an MCHC ([…], time 14 day) of 34%. For the same compound, the MCV ([…], time 14 day) was 60.8 fL, the Mono ([…], time 14 day) was 2% and the Neu ([…], time 14 day) was 15.8%. It also gave a PT ([…], time 14 day) of 16 s, a Plat ([…], time 14 day) of 114.3 x10_4/uL and an RBC ([…], time 14 day) of 681 x10_4/ul. For the same compound, the Ret ([…], time 14 day) was 5.1%, the WBC ([…], time 14 day) was 127.7 x10_2/uL and the APTT ([…], time 28 day) was 22.7 s. The Bas ([…], time 28 day) was 0%, the Eos ([…], time 28 day) was 0.8% and the Fbg ([…], time 28 day) was 341.8 mg/dL. It also gave a Hb ([…], time 28 day) of 15.1 g/dL, a Ht ([…], time 28 day) of 43.8% and a Lym ([…], time 28 day) of 80.2%. For the same compound, the MCH ([…], time 28 day) was 19.9 pg, the MCHC ([…], time 28 day) was 34.6% and the MCV ([…], time 28 day) was 57.7 fL. It also gave a Mono ([…], time 28 day) of 1.8%, a Neu ([…], time 28 day) of 16.4% and a PT ([…], time 28 day) of 16.4 s. The Plat ([…], time 28 day) was 101.8 x10_4/uL, the RBC ([…], time 28 day) was 760.2 x10_4/ul and the Ret ([…], time 28 day) was 2.9%. For the same compound, the WBC ([…], time 28 day) was 124 x10_2/uL, the KIDNEY_L ([…], time 7 day) was 1.2 g and the KIDNEY_R ([…], time 7 day) was 1.2 g. It also gave a KIDNEY_TOTAL ([…], time 7 day) of 2.3 g, a KIDNEY_L ([…], time 14 day) of 1.2 g and a KIDNEY_R ([…], time 14 day) of 1.2 g. The KIDNEY_TOTAL ([…], time 14 day) was 2.5 g, the KIDNEY_L ([…], time 28 day) was 1.4 g and the KIDNEY_R ([…], time 28 day) was 1.4 g. It also gave a KIDNEY_TOTAL ([…], time 28 day) of 2.8 g, an LIVER ([…], time 7 day) of 12.3 g and an LIVER ([…], time 14 day) of 15.1 g. It also gave an LIVER ([…], time 28 day) of 16.9 g, an A/G ([…], time 7 day) of 1.3 and an ALP ([…], time 7 day) of 1379.8 IU/L. It also gave an ALT ([…], time 7 day) of 42.2 IU/L, an AST ([…], time 7 day) of 73.2 IU/L and a BUN ([…], time 7 day) of 17.6 mg/dL. It also gave a CRE ([…], time 7 day) of 0.2 mg/dL, a Ca ([…], time 7 day) of 10.7 mg/dL and a Cl ([…], time 7 day) of 104.6 meq/L. It also gave a DBIL ([…], time 7 day) of 0 mg/dL, a GLC ([…], time 7 day) of 205.2 mg/dL and an IP ([…], time 7 day) of 7.7 mg/dL. For the same compound, the K ([…], time 7 day) was 4.6 meq/L, the LDH ([…], time 7 day) was 212.4 IU/L and the Na ([…], time 7 day) was 141.2 meq/L. It also gave a PL ([…], time 7 day) of 133.6 mg/dL, an RALB ([…], time 7 day) of 3.1 g/dL and a TBIL ([…], time 7 day) of 0.012 mg/dL. It also gave a TC ([…], time 7 day) of 64.4 mg/dL, a TG ([…], time 7 day) of 89.4 mg/dL and a TP ([…], time 7 day) of 5.4 g/dL. It also gave a gamma-GTP ([…], time 7 day) of 2 IU/L, an A/G ([…], time 14 day) of 1.2 and an ALP ([…], time 14 day) of 1370.6 IU/L. The ALT ([…], time 14 day) was 40 IU/L, the AST ([…], time 14 day) was 70.4 IU/L and the BUN ([…], time 14 day) was 18.8 mg/dL. The CRE ([…], time 14 day) was 0.2 mg/dL, the Ca ([…], time 14 day) was 10.8 mg/dL and the Cl ([…], time 14 day) was 105.4 meq/L. For the same compound, the DBIL ([…], time 14 day) was 0 mg/dL, the GLC ([…], time 14 day) was 201 mg/dL and the IP ([…], time 14 day) was 7 mg/dL. The K ([…], time 14 day) was 4.3 meq/L, the LDH ([…], time 14 day) was 162.6 IU/L and the Na ([…], time 14 day) was 142.2 meq/L. It also gave a PL ([…], time 14 day) of 136.8 mg/dL, an RALB ([…], time 14 day) of 3.2 g/dL and a TBIL ([…], time 14 day) of 0.002 mg/dL. For the same compound, the TC ([…], time 14 day) was 66 mg/dL, the TG ([…], time 14 day) was 133 mg/dL and the TP ([…], time 14 day) was 5.9 g/dL. It also gave a gamma-GTP ([…], time 14 day) of 3 IU/L, an A/G ([…], time 28 day) of 1 and an ALP ([…], time 28 day) of 1347.2 IU/L. The ALT ([…], time 28 day) was 42.4 IU/L, the AST ([…], time 28 day) was 66.8 IU/L and the BUN ([…], time 28 day) was 19.4 mg/dL. It also gave a CRE ([…], time 28 day) of 0.2 mg/dL, a Ca ([…], time 28 day) of 10.4 mg/dL and a Cl ([…], time 28 day) of 104.8 meq/L. It also gave a DBIL ([…], time 28 day) of 0 mg/dL, a GLC ([…], time 28 day) of 195.8 mg/dL and an IP ([…], time 28 day) of 6.3 mg/dL. For the same compound, the K ([…], time 28 day) was 4 meq/L, the LDH ([…], time 28 day) was 160.6 IU/L and the Na ([…], time 28 day) was 143.2 meq/L. The PL ([…], time 28 day) was 149 mg/dL, the RALB ([…], time 28 day) was 3 g/dL and the TBIL ([…], time 28 day) was 0.006 mg/dL. It also gave a TC ([…], time 28 day) of 65.8 mg/dL, a TG ([…], time 28 day) of 192.8 mg/dL and a TP ([…], time 28 day) of 6.2 g/dL. For the same compound, the gamma-GTP ([…], time 28 day) was 2.6 IU/L.
